Here are results for 4 molecules from US20250136934A1, “PRODUCTION OF INDUCED MIDBRAIN DOPAMINERGIC PROGENITOR CELLS FROM PLURIPOTENT STEM CELLS” (NUWACELL BIOTECHNOLOGIES CO., LTD., priority 2023, published 2025).

The test system of one test is imDAP cells. The test can be described thus: Specification of imDAP cells under BMP and TGF-β signaling inhibition (FACS FOXA2+/OTX2+, NKX2.1 qRT-PCR, LMX1A immunostaining). The test is classed as cell-based, human. To be noted: for specification of imDAP cells (FIGS. 13A-13D taken together): LDN193189 at 0.2 μM Day 0 to Day 6 and SB431542 at 50 μM Day 0 to Day 4 or Day 0 to Day 6; for specification of imDAP cells (FIGS. 12A-12C taken together): LDN193189 at 0.5 μM and SB431542 at 20 μM, among all combinations of concentrations tested; for specification of imDAP cells (FIGS. 11A-11C taken together): LDN193189 from D0 to D6 and SB431542 from D0 to D4, among all time windows tested.

The test system of the next test is FOXA2+ imDAP cells. Nature of the test: FACS analysis of FOXA2 expression of imDAP cells derived from hiPSCs. The class given is cell-based, human. On the procedure: • 1. Individualize and collect cells by either Accutase or TrypLE treatment. • 2. Wash cells with 1 ml PBS and pellet cells at 250×g for […]. • 3. Remove supernatant, add ˜200 μl of 4% PFA, mix and fix for 10 min at RT. • 4. Pellet cells at 350×g for 5 min. • 5. Wash cells by 1 ml of FACS buffer and pellet cells at 350×g for 5 min. • 6. Remove supernatant, add 200 μl/tube of FACS buffer/0.1% Triton X, mix for 10 min at RT. • 7. Wash cells by 1 ml of FACS buffer and pellet cells at 350×g for 5 min. • 8. Remove supernatant, add 200 μl/tube of primary antibody diluted in FACS buffer, mix gently, and incubate for 30 min at RT. • 9. Wash cells by 1 ml of FACS buffer and pellet cells at 350×g for 5 min. • 10. Remove supernatant, and add 200 μl of secondary antibody diluted in FACS buffer, mix gently, and incubate for 30 min at RT. • 11. Wash cells by 1 ml of FACS buffer and pellet cells at 300×g for 5 min. • 12. Remove supernatant, add 200 μl of FACS buffer, and run samples on the flow cytometer.
On Day-1, EB formation (Stage 1) was carried out by dissociating hiPSCs (Nuwacell) to form a single-cell suspension and resuspending it in Epic medium (Nuwacell, #RP01001) containing 10 μM Blebbistatin (MCE, #HY-13441) in T25 flasks on a belly dancer and culturing the cells overnight. On Day 0, ventral midbrain floor plate differentiation (Stage 2) was initiated by changing the medium to a Stage 2-1 differentiation medium containing DMEM: F12/B27 (plus Vitamin A) (98:2, v/v) as basal medium and supplemented with 0.2 μM LDN193189, 10 μM SB431542, 1 μg/mL SHH C24II and 1.25 μM CHIR99021 and culturing the cells for 3 Days. From Day 3, the basal medium was changed to DMEM: F12/B27 (minus Vitamin A) (98:2, v/v), and CHIR concentration was boosted to 7.5 μM until Day 10 (Stage 2-2). SB431542 was withdrawn on Day 4, and SHH C24II was withdrawn on Day 8. From Day 10 (Stage 2-3), the medium was changed to a differentiation medium containing DMEM: F12/B27 (minus Vitamin A) (98:2, v/v) as basal medium and supplemented with 0.2 μM LDN193189 and 3 μM CHIR99021. During the cell culture, each of the differentiation media was replaced every day. On Day 16 (at the end of S2-3), EBs were dissociated for single cells and collected for analysis. The cells of each group were stained with FOXA2-PE antibody (BD, #561689), the percentage of FOXA2+ imDAP cells were analyzed by flow cytometry (FIG. 5). The above experiment was repeated for three times and the derived imDAP cells were named as Lot1, Lot2 and Lot3, respectively.
On Day-1, EB formation (Stage 1) was carried out by dissociating hiPSCs (Nuwacell) to form a single-cell suspension and resuspending it in Epic medium (Nuwacell, #RP01001) containing 10 μM Blebbistatin (MCE, #HY-13441) in T25 flasks on a belly dancer and culturing the cells overnight. On Day 0, ventral midbrain floor plate differentiation (Stage 2) was initiated by changing the medium to a Stage 2-1 differentiation medium containing DMEM: F12/B27 (plus Vitamin A) (98:2, v/v) as basal medium and supplemented with 0.2 μM LDN193189, 20 μM SB431542, 1.2 μM CHIR99021, and 1 μg/mL SHH C24II or the combination of SHH agonists including 500 ng/mL SHH C24II, 2 μM Purmorphamine and 10 nM SAG and culturing the cells for 3 days. From Day 3, the basal medium was changed to DMEM: F12/B27 (minus Vitamin A) (98:2, v/v). Cells were exposed to Boost-CHIR concentration of 7.5 μM starting from Day 4 to Day 6 (Stage 2-2), followed by a low CHIR concentration of 1.2 μM (Stage 2-3) until Day 10. […]

For `c1ccc2c(-c3cnn4cc(-c5ccc(N6CCNCC6)cc5)cnc34)ccnc2c1` [LDN193189], in the test with imDAP cells, the “specification of imDAP cells (FIGS. 13A-13D taken together)” value was “best results”, the “specification of imDAP cells (FIGS. 12A-12C taken together)” value is recorded as “best results” and the “specification of imDAP cells (FIGS. 11A-11C taken together)” value is reported as “best results”.
On to `NC(=O)c1ccc(-c2nc(-c3ccc4c(c3)OCO4)c(-c3ccccn3)[nH]2)cc1` [SB431542], for which, in the test with imDAP cells, the “specification of imDAP cells (FIGS. 13A-13D taken together)” value was “best results”, the “specification of imDAP cells (FIGS. 12A-12C taken together)” value is recorded as “best results” and the “specification of imDAP cells (FIGS. 11A-11C taken together)” value was “best results”.
In the case of “SHH C24II: sonic hedgehog agonist polypeptide, SEQ ID NO: 2”, in the test on FOXA2+ imDAP cells (4-step protocol, SHH agonist in medium Day 0 to Day 10, analysis Day 16), the “percentage of cells positive for FOXA2” value is recorded as 85.71%.
As for Vitamin A, the “percentage of FOXA2+ cells” value in the test with FOXA2+ imDAP cells (without Vitamin A throughout differentiation versus Vitamin A only D0-3 or D0-2) was “higher percentage”.
